Source: patent US9797883B2, “Re-trafficking of herg reverses long QT syndrome 2 phenotype in human iPS-derived cardiomyocytes” (Singapore Health Services Pte Ltd, priority 2013, dated 2017)
Entries after “also recorded” stand apart in the source; their conditions may differ.

Columns and labels:
[1] = test system: LQTS2-EBs; test: Microelectrode array (MEA) extracellular field potential recordings, LQTS2; assay type: cell-based, human; details: for cFPD (repolarization duration): human LQTS2 CMs
Source text: (§1) To characterize the electrophysiological properties of the hiPS-CMs, a microelectrode array (MEA) recording system (Multichannel Systems, Reutlingen, Germany) was used as described previously. Briefly, contracting areas were micro-dissected and plated on MEA plates, allowed to adjust for 72 hrs before recording. All clusters were monitored for their beating abilities (beats/min) under the microscope during the 72 hr period. Clusters that maintained relatively uniform beating rates were then subjected to drugs. The MEA system allows simultaneous recordings from 60 titanium nitride-coated gold electrodes (30 μm) at high spatial (200 μm) and temporal (15 kHz) resolutions. All stock drugs were diluted in medium (2 mL) to assess the effects on the electrophysiological properties. […]. MEA clip along with the beating clusters was maintained on 37° C. throughout the duration of experiments. Care was also taken that all buffers including the medium utilized during all experimentation were pre-warmed to 37° C. All tested drugs were procured from Sigma-Aldrich, MO, USA. All extracellular recordings were performed for 180 seconds at baseline and at 5 minutes after drug application at 37° C. Data were recorded using MC Rack software (Multichannel System) and the recordings were used to determine the local field potential duration (FPD). FPD measurements were normalized (corrected FPD [cFPD]) to the beating rate of the contracting areas with the Bazzet correction formula: cFPD=FPD/√(RR interval).

[2] = test system: control-EBs; test: Microelectrode array (MEA) extracellular field potential recordings, control; assay type: cell-based, human; details: 100 nM E-4031, control contracting EBs
Source text: as §1, with “FPD measurements were normalized (corrected FPD [cFPD]) to the beating rate of the contracting areas with the Bazzet correction formula: cFPD=FPD/√(RR interval).” left out

[3] = atenolol 10 μM after isoproterenol, LQTS2-EBs

Cc1ccc(NC(=O)C2(c3ccc4c(c3)OC(F)(F)O4)CC2)nc1-c1cccc(C(=O)O)c1 [VX-809, 3-[6-[[1-(2,2-difluoro-1,3-benzodioxol-5-yl)cyclopropanecarbonyl]amino]-3-methylpyridin-2-yl]benzoic acid]
cFPD (repolarization duration) ([1]; VX-809 10 μM): shortening the cFPD; also recorded: shortening of repolarization duration

Cc1cccc(CCN2CCC(C(=O)c3ccc(NS(C)(=O)=O)cc3)CC2)n1 [E-4031]
beating rate-corrected field potential duration (cFPD) ([1]; 100 nM E-4031, LQTS2 contracting EBs): increased cFPDs significantly
beating rate-corrected field potential duration (cFPD) [2]: increased cFPDs significantly

CC(C)NCC(O)COc1ccc(CC(N)=O)cc1 (stereo not shown) [atenolol]
beating frequencies [1, 3]: reduced the beating frequencies
cFPD [1, 3]: restored cFPDs

CC(C)NCC(O)c1ccc(O)c(O)c1 (stereo not shown) [isoproterenol]
arrhythmogenic episodes ([1]; isoproterenol 1 uM, LQTS2-EBs): aggravating arrhythmogenic episodes
beating frequencies ([1]; isoproterenol 1 uM, LQTS2-EBs): increased beating frequencies
cFPD ([1]; isoproterenol 1 uM, LQTS2-EBs, n=15, LQTS2-baseline 0.657±0.07 s): 0.212 ± 0.02 s

O=C([O-])CCCc1ccccc1.[Na+] [4PBA, sodium 4-phenylbutyrate]
cFPD (repolarization duration) ([1]; sodium 4-phenylbutyrate 400 μM): shortening the cFPD
cFPD (repolarization duration) ([1]; sodium 4-phenylbutyrate 400 μM, listed as 4BPA): shortening of repolarization duration
